Data taken from ChEMBL document CHEMBL1143297, “Synthesis and CHK1 inhibitory potency of Hymenialdisine analogues” (Bioorg Med Chem Lett, 2009).
Calls of active or inactive are those of the source. The calls are words filed in the database; no cut-off is given here.

Target: Serine/threonine-protein kinase SIK1 (Homo sapiens) (UniProt P57059)
Assay: Inhibition of SIK

Chain of Serine/threonine-protein kinase SIK1 (Homo sapiens) (P57059 whole entry): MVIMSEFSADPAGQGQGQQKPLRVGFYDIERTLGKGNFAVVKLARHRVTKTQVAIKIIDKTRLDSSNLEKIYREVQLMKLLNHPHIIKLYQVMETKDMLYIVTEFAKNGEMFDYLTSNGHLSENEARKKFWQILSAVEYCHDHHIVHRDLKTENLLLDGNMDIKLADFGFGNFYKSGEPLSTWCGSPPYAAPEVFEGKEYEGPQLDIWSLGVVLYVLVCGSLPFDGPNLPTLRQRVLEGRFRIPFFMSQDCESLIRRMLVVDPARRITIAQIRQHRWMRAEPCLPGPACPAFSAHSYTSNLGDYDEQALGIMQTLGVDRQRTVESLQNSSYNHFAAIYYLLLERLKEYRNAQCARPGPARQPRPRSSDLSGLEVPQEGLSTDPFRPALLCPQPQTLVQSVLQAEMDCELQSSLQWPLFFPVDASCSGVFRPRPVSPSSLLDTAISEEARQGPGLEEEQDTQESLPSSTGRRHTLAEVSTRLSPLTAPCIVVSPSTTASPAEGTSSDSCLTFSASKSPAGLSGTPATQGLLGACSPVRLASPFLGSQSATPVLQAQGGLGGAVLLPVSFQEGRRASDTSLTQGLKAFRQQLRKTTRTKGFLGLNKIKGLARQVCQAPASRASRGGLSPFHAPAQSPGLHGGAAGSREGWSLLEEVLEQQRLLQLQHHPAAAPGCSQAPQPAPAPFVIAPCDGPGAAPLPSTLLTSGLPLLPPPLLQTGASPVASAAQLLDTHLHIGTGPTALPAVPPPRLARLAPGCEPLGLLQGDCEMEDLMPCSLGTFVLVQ

Compound | Activity
NC1=NC(=O)/C(=C2\CCNC(=O)c3[nH]c4c(Br)csc4c32)N1 | Active

Target: Glycogen synthase kinase-3 beta (Homo sapiens) (UniProt P49841)
Sequence (P49841 whole entry, looked up): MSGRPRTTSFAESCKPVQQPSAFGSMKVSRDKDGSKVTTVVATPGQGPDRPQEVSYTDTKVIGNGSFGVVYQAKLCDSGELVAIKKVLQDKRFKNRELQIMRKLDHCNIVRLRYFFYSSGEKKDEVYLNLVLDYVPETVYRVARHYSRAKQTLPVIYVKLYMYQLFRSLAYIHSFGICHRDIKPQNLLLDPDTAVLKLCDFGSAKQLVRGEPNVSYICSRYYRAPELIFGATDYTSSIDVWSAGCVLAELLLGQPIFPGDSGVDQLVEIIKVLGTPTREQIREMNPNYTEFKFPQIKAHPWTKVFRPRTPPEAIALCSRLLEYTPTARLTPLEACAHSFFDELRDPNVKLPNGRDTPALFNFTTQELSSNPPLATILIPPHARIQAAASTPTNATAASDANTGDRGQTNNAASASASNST
Assay: Inhibition of GSK3-beta

Compound | Activity
NC1=NC(=O)/C(=C2\CCNC(=O)c3[nH]c4c(Br)csc4c32)N1 | Active

Target: T1, Serine/threonine-protein kinase Chk1 (Homo sapiens, UniProt O14757)
T1 sequence (O14757 whole entry): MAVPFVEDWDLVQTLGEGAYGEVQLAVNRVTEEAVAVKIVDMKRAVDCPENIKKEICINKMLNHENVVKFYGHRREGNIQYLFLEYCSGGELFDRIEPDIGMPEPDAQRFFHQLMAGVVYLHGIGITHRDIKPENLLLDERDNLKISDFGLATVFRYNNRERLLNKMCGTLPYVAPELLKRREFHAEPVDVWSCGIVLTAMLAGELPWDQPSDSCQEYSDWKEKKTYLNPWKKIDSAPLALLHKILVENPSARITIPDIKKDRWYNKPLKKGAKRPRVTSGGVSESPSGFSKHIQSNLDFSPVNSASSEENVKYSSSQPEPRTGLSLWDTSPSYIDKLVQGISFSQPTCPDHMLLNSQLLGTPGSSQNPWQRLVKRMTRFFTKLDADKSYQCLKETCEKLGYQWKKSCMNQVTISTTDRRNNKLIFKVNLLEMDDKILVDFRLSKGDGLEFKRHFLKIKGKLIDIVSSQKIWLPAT
Assay: Inhibition of CHK1

Compound | IC50 [nM]
NC1=NC(=O)/C(=C2\CCNC(=O)c3[nH]c4c(Br)csc4c32)S1 | 190
NC1=NC(=O)/C(=C2\CCNC(=O)c3[nH]c4c(Cl)c(Cl)sc4c32)N1 | 890
NC1=NC(=O)/C(=C2\CCNC(=O)c3[nH]c4c(-c5ccccc5)csc4c32)N1 | 1300
NC(=O)c1csc2c3c([nH]c12)C(=O)NCC/C3=C1/NC(N)=NC1=O | 150
NC1=NC(=O)/C(=C2\CCNC(=O)c3[nH]c4c(sc5ccccc54)c32)N1 | 230
O=C1N=C(NCCO)N/C1=C1/CCNC(=O)c2[nH]c3ccsc3c21 | 1700
NC1=NC(=O)/C(=C2\CCNC(=O)c3[nH]c(Br)cc32)N1 [HYMENIALDISINE] | 1900
NC1=NC(=O)/C(=C2\CCNC(=O)c3[nH]c(Br)c(Br)c32)N1 | 100
NC1=NC(=O)/C(=C2\CCNC(=O)c3[nH]c4c(-c5ccccc5)csc4c32)S1 | > 10000
N#Cc1csc2c3c([nH]c12)C(=O)NCC/C3=C1/NC(N)=NC1=O | 29
NC1=NC(=O)/C(=C2\CCNC(=O)c3[nH]c4ccsc4c32)S1 | 180
NC1=NC(=O)/C(=C2\CCNC(=O)c3[nH]c4c(Cl)csc4c32)N1 | 140
COc1ccc(Cn2c3c(c4scc(Br)c42)/C(=C2\NC(N)=NC2=O)CCNC3=O)cc1 | > 10000
NC1=NC(=O)/C(=C2\CCNC(=O)c3[nH]c4cc(Cl)sc4c32)N1 | 300
NC1=N/C(=C2/CCNC(=O)c3[nH]ccc32)C(=O)N1 [DEBROMOHYMENIALDISINE] | 330
O=C1N=C(NCCO)N/C1=C1/CCNC(=O)c2[nH]c3c(Br)csc3c21 | 280
NC1=NC(=O)/C(=C2\CCNC(=O)c3[nH]c4c(Br)csc4c32)N1 | 14
Cn1c2c(c3sccc31)/C(=C1\NC(N)=NC1=O)CCNC2=O | > 10000
O=C(O)CNC1=NC(=O)/C(=C2\CCNC(=O)c3[nH]c4c(Br)csc4c32)N1 | 260
NC1=NC(=O)/C(=C2\CCNC(=O)c3[nH]c4cc(Br)sc4c32)N1 | 460
NC1=NC(=O)/C(=C2\CCNC(=O)c3[nH]c4c(sc5ccccc54)c32)S1 | > 10000
NC1=NC(=O)/C(=C2\CCNC(=O)c3[nH]c4ccsc4c32)N1 | 150
Nc1nc(C2=C3C(=Nc4ccccc43)C(=O)NCC2)c(O)[nH]1 | 470

Target: T2, NUAK family SNF1-like kinase 1 (Homo sapiens) (UniProt O60285)
T2 sequence (whole entry): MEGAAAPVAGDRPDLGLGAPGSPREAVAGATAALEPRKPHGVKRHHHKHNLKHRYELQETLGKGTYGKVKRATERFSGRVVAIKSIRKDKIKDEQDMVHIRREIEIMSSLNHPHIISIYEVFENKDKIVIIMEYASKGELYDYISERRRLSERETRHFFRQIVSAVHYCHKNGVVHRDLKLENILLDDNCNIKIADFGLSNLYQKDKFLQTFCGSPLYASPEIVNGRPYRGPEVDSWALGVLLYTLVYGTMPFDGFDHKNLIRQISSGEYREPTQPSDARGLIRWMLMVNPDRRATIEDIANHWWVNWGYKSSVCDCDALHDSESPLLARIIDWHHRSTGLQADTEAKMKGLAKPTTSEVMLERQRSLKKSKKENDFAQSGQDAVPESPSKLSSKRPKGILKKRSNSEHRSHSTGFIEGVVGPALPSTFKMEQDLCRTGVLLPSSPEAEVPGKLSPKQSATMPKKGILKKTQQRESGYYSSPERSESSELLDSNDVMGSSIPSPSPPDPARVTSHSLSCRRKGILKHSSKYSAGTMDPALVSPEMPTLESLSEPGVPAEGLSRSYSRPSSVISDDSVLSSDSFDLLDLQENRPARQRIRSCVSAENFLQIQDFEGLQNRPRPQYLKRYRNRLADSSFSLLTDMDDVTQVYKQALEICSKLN
Assay: Inhibition of ARK5

Compound | Activity
NC1=NC(=O)/C(=C2\CCNC(=O)c3[nH]c4c(Br)csc4c32)N1 | Active

Target: Receptor-type tyrosine-protein kinase FLT3 (Homo sapiens) (UniProt P36888)
Sequence (P36888 whole entry): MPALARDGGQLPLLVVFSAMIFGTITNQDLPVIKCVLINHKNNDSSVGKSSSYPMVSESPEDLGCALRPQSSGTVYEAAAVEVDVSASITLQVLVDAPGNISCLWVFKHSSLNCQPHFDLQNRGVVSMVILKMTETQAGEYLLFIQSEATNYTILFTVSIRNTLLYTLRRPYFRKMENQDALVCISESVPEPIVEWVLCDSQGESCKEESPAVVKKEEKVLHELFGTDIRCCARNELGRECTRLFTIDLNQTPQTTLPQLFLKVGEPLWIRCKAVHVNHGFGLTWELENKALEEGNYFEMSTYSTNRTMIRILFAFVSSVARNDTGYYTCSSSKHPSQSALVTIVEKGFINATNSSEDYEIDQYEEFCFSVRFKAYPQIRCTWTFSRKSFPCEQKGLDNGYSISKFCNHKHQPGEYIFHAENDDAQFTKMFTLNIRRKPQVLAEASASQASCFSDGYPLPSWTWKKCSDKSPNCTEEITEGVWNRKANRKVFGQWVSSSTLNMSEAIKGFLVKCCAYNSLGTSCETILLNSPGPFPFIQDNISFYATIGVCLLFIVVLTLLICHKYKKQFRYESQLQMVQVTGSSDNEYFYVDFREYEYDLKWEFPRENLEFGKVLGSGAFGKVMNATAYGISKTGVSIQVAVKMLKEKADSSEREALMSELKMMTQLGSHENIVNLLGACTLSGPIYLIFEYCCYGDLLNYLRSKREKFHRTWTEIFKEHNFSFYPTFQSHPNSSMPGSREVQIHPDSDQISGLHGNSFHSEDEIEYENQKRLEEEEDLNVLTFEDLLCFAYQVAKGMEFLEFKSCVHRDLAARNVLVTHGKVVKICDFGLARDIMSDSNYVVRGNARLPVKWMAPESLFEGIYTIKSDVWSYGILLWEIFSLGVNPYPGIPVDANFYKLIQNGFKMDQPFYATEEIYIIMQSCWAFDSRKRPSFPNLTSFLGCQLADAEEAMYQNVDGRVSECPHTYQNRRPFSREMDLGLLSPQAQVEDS
Assay: Inhibition of FLT3

Compound | Activity
NC1=NC(=O)/C(=C2\CCNC(=O)c3[nH]c4c(Br)csc4c32)N1 | Active
